How the values were obtained:
[1] = system: MOLP-8 human multiple myeloma cell line; experiment: Caspase-Glo 3/7 apoptosis induction assay in MOLP-8 cells; type: cell-based; details: caspase-3/7 activity, 2 hours at 37° C., averaged over all runs on all batches, read-out: MOLP8 AC50
Text: MCL-1 is a regulator of apoptosis and is highly over-expressed in tumor cells that escape cell death. The assay evaluates the cellular potency of small-molecule compounds targeting regulators of the apoptosis pathway, primarily MCL-1, Bfl-1, Bcl-2, and other proteins of the Bcl-2 family. Protein-protein inhibitors disrupting the interaction of anti-apoptotic regulators with BH3-domain proteins initiate apoptosis.
The Caspase-Glo® 3/7 Assay is a luminescent assay that measures caspase-3 and −7 activities in purified enzyme preparations or cultures of adherent or suspension cells. The assay provides a proluminescent caspase-3/7 substrate, which contains the tetrapeptide sequence DEVD. This substrate is cleaved to release aminoluciferin, a substrate of luciferase used in the production of light. Addition of the single Caspase-Glo® 3/7 Reagent in an “add-mix-measure” format results in cell lysis, followed by caspase cleavage of the substrate and generation of a “glow-type” luminescent signal.
This assay uses the MOLP-8 human multiple myeloma cell line, which is sensitive to MCL-1 inhibition.
Cell cultures were maintained between 0.2 and 2.0×10^6 cells/mL. The cells were harvested by collection in 50 mL conical tubes. The cells were then pelleted at 500 g for 5 mins before removing supernatant and resuspension in fresh pre-warmed culture medium. The cells were counted and diluted as needed.
The assay reagent was prepared by transferring the buffer solution to the substrate vial and mixing. The solution may be stored for up to 1 week at 4° C. with negligible loss of signal.
Compounds were delivered in assay-ready plates (Proxiplate) and stored at −20° C.
Assays always include 1 reference compound plate containing reference compounds. The plates were spotted with 40 nL of compounds (0.5% DMSO final in cells; serial dilution; 30 μM highest conc. 1/3 dilution, 10 doses, duplicates). The compounds were used at room temperature and 4 μL of pre-warmed media was added to all wells except column 2 and 23. The negative control was prepared by adding 1% DMSO in media. The positive control was prepared by adding the appropriate positive control compound in final concentration of 60 μM in media. The plate was prepared by adding 4 μL negative control to column 23, 4 μL positive control to column 2 and 4 μL cell suspension to all wells in the plate. The plate with cells was then incubated at 37° C. for 2 hours. The assay signal reagent is the Caspase-Glo solution described above, and 8 μL was added to all wells. The plates were then sealed and measured after 30 minutes.
The activity of a test compound was calculated as percent change in apoptosis induction as follows: • LC=median of the Low Control values • =Central Reference in Screener • =DMSO • =[…] • HC=Median of the High Control values • =Scale Reference in Screener • =30 μM of positive control • =100% apoptosis induction
% Effect (AC50)=100−((sample−LC)/(HC−LC))*100
% Control=(sample/HC)*100
% Control min=((sample−LC)/(HC−LC))*100

[2] = biological target: Myeloid Cell Leukemia 1 (Mcl-1) (Homo sapiens, UniProt Q07820); experiment: Terbium labeled Mcl-1 HTRF binding assay, displacement of Cy5-labeled BIM BH3 peptide; details: 25 pM Tb-Mcl-1, 8 nM Cy5 Bim peptide, 60 min at room temperature, read-out: Tb-MCL1 Ki
Chain of Myeloid Cell Leukemia 1 (Mcl-1) (Q07820 whole entry): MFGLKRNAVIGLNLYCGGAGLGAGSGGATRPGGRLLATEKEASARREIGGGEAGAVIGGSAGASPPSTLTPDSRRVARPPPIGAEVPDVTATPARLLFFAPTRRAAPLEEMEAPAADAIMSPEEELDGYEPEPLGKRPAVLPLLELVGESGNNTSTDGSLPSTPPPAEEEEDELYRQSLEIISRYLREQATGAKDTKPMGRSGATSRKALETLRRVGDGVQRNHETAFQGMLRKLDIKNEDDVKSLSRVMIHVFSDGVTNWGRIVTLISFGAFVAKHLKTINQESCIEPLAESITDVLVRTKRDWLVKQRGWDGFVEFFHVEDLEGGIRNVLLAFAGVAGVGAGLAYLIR
Description: Terbium labeled Myeloid Cell Leukemia 1(Mcl-1) homogeneous time-resolved fluorescence (HTRF) binding assay utilizing the BIM BH3 peptide (H2N—(C/Cy5Mal) WIAQELRRIGDEFN-OH) as the binding partner for Mcl-1.
This assay evaluated inhibition of the BH3 domain: Mcl-1 interaction by measuring the displacement of Cy5-labeled BIM BH3 peptide (H2N—(C/Cy5Mal) WIAQELRRIGDEFN-OH) in the HTRF assay format.
The following assay and stock buffers were prepared for use in the assay: (a) Stock buffer: 10 mM Tris-HCl, pH=7.5+150 mM NaCl, filtered, sterilized, and stored at 4° C.; and (b) 1× assay buffer, where the following ingredients were added fresh to stock buffer: 2 mM dithiothreitol (DTT), 0.0025% Tween-20, 0.1 mg/mL bovine serum albumin (BSA). The 1×Tb-Mcl-1+Cy5 Bim peptide solution was prepared by diluting the protein stock solution using the 1× assay buffer (b) to 25 pM Tb-Mel-1 and 8 nM Cy5 Bim peptide.
Using the Acoustic ECHO, 100 nL of 100× test compound(s) were dispensed into individual wells of a white 384-well Perkin Elmer Proxiplate, for a final compound concentration of 1× and final DMSO concentration of 1%. Inhibitor control and neutral control (NC, 100 nL of 100% DMSO) were stamped into columns 23 and 24 of assay plate, respectively. Into each well of the plate was then dispensed 10 μL of the 1×Tb-Mcl-1+Cy5 Bim peptide solution. The plate was centrifuged with a cover plate at 1000 rpm for 1 minute, then incubated for 60 minutes at room temperature with plates covered.
The TR-FRET signal was read on an BMG PHERAStar FSX MicroPlate Reader at room temperature using the HTRF optic module (HTRF: excitation: 337 nm, light source: laser, emission A: 665 nm, emission B: 620 nm, integration start: 60 μs, integration time: 400 μs).
The BMG PHERAStar FSX MicroPlate Reader was used to measure fluorescence intensity at two emission wavelengths—665 nm and 620 nm—and report relative fluorescence units (RFU) for both emissions, as well as a ratio of the emissions (665 nm/620 nm)*10,000. The RFU values were normalized to percent inhibition as follows:
% inhibition(((NC−IC)−(compound−IC))(NC−IC))*100
where IC (inhibitor control, low signal)=mean signal of 1×Tb-MCl-1+Cy5 Bim peptide+inhibitor control or 100% inhibition of Mcl-1; NC (neutral control, high signal)=mean signal 1×Tb-MCl-1+Cy5 Bim peptide with DMSO only or 0% inhibition An 11-point dose response curve was generated to determine IC50 values (using GenData) based on the following equation:
where Y=% inhibition in the presence of X inhibitor concentration; Top=100% inhibition derived from the IC (mean signal of Mcl-1+inhibitor control); Bottom=0% inhibition derived from the NC (mean signal of Mcl-1+DMSO); Hillslope=Hill coefficient; and IC50=concentration of compound with 50% inhibition in relation to top/neutral control (NC).
Representative compounds of the present invention were tested according to the procedure as described above, with results as listed in the Table below (n.d. means not determined).

SMILES	AC50 [1] [nM]	Ki [2] [nM]
C[C@@H]1[C@@H](C)C/C=C/[C@H](C(=O)N2CCOCC2)N2CC[C@H]2CN2C[C@@]3(CCCc4cc(Cl)ccc43)COc3ccc(cc32)C(=O)NS1(=O)=O [Compound 8]	340	0.705
C[C@@H]1[C@@H](C)C/C=C/[C@@H](C(=O)N2CCOCC2)N2CCC[C@H]2CN2C[C@@]3(CCCc4cc(Cl)ccc43)COc3ccc(cc32)C(=O)NS1(=O)=O [Compound 6]	1950	
COCCN(CCOC)C(=O)[C@H]1/C=C/C[C@H](C)[C@@H](C)S(=O)(=O)NC(=O)c2ccc3c(c2)N(C[C@@H]2CCCN21)C[C@@]1(CCCc2cc(Cl)ccc21)CO3 [Compound 1]	56	0.03
CC1CC=CC(C(=O)N(C)CCN2CCOCC2)N2CCCC2CN2CC3(CCCc4cc(Cl)ccc43)COc3ccc(cc32)C(=O)NS(=O)(=O)C1C (centres unmarked) [Compound 5]	180	0.024
C[C@@H]1[C@@H](C)C/C=C/[C@H](C(=O)N(C)CCC2CCOCC2)N2CCC[C@H]2CN2C[C@@]3(CCCc4cc(Cl)ccc43)COc3ccc(cc32)C(=O)NS1(=O)=O [Compound 2]	130	0.058
C[C@@H]1[C@@H](C)C/C=C/[C@H](C(=O)N(C)C)N2CCC[C@H]2CN2C[C@@]3(CCCc4cc(Cl)ccc43)COc3ccc(cc32)C(=O)NS1(=O)=O [Compound 4]	180	0.142
C[C@@H]1[C@@H](C)C/C=C/[C@@H](C(=O)N2CCOCC2)N2CC[C@H]2CN2C[C@@]3(CCCc4cc(Cl)ccc43)COc3ccc(cc32)C(=O)NS1(=O)=O [Compound 9]	660	0.196
C[C@@H]1[C@@H](C)C/C=C/[C@H](C(=O)N2CCOCC2)N2CCC[C@H]2CN2C[C@@]3(CCCc4cc(Cl)ccc43)COc3ccc(cc32)C(=O)NS1(=O)=O [Compound 7]	360	0.089
C[C@@H]1[C@@H](C)C/C=C/[C@H](C(=O)N(C)CC2CCOCC2)N2CCC[C@H]2CN2C[C@@]3(CCCc4cc(Cl)ccc43)COc3ccc(cc32)C(=O)NS1(=O)=O [Compound 3]	81	0.027

Reference: patent US20250051359A1, “MACROCYCLIC 2-AMINO-BUT-3-ENAMIDES AS INHIBITORS OF MCL-1” (JANSSEN PHARMACEUTICA NV, priority 2021, published 2025)
